Measured values published in US20230017045A1, “PYRIDINE AND PYRIMIDINE CARBOXYLATE HERBICIDES AND METHODS OF USE THEREOF” (Dow AgroSciences LLC, priority 2017, published 2023).
Where two headings read alike, the source gives them in different places.

Tested on: test plant species
Assay: Post-emergent herbicidal activity test (greenhouse, foliar spray, visual growth reduction)
Assay type: in vivo
Settings: 140 g ai/ha; for pest or weed control at 140 g/ha: post-emergence, 336 h
Procedure, shortened: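 Visual scoring 14 d after treatment (0 = no injury, 100 = complete control) against nontreated and solvent-blank plants gave percent growth reduction. Foliar application used a track sprayer delivering 187 L/ha to seedlings at first or second true leaf stage, grown at 23–29 °C day, ~15 h photoperiod.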

[1] = ECHCG: barnyardgrass (Echinochloa crus-galli), 14 days after application, read-out: Visual Growth Reduction (%) 14 Days After Application, ECHCG
[2] = IPOHE: ivy-leaf morning glory (Ipomoea hederacea), 14 days after application, read-out: Visual Growth Reduction (%) 14 Days After Application, IPOHE
[3] = KCHSC: kochia (Bassia scoparia), 14 days after application, read-out: Visual Growth Reduction (%) 14 Days After Application, KCHSC
[4] = ORYSA: rice (Oryza sativa), 14 days after application, read-out: Visual Growth Reduction (%) 14 Days After Application, ORYSA
[5] = SETFA: giant foxtail (Setaria faberi), 14 days after application, read-out: Visual Growth Reduction (%) 14 Days After Application, SETFA
[6] = SORVU: grain sorghum (Sorghum vulgare), 14 days after application, read-out: Visual Growth Reduction (%) 14 Days After Application, SORVU
[7] = STEME: common chickweed (Stellaria media), 14 days after application, read-out: Visual Growth Reduction (%) 14 Days After Application, STEME
[8] = TRZAS: wheat, spring (Triticum aestivum), 14 days after application, read-out: Visual Growth Reduction (%) 14 Days After Application, TRZAS
[9] = ALOMY: blackgrass (Alopecurus myosuroides), 14 days after application, read-out: Visual Growth Reduction (%) 14 Days After Application, ALOMY
[10] = AMARE: redroot pigweed (Amaranthus retroflexus), 14 days after application, read-out: Visual Growth Reduction (%) 14 Days After Application, AMARE
[11] = AVEFA: wild oat (Avena fatua), 14 days after application, read-out: Visual Growth Reduction (%) 14 Days After Application, AVEFA
[12] = CHEAL: lambsquarters (Chenopodium album), 14 days after application, read-out: Visual Growth Reduction (%) 14 Days After Application, CHEAL
[13] = CIRAR: canada thistle (Cirsium arvense), 14 days after application, read-out: Visual Growth Reduction (%) 14 Days After Application, CIRAR
[14] = CYPES: yellow nutsedge (Cyperus esculentus), 14 days after application, read-out: Visual Growth Reduction (%) 14 Days After Application, CYPES
[15] = DIGSA: crabgrass (Digitaria sanguinalis), 14 days after application, read-out: Visual Growth Reduction (%) 14 Days After Application, DIGSA
[16] = blackgrass (Alopecurus myosuroides), 14 Days After Application, read-out: Visual Growth Reduction (%) ALOMY
[17] = canada thistle (Cirsium arvense), 14 Days After Application, read-out: Visual Growth Reduction (%) CIRAR
[18] = crabgrass (Digitaria sanguinalis), 14 Days After Application, read-out: Visual Growth Reduction (%) DIGSA
[19] = lambsquarters (Chenopodium album), 14 Days After Application, read-out: Visual Growth Reduction (%) CHEAL
[20] = redroot pigweed (Amaranthus retroflexus), 14 Days After Application, read-out: Visual Growth Reduction (%) AMARE
[21] = wild oat (Avena fatua), 14 Days After Application, read-out: Visual Growth Reduction (%) AVEFA
[22] = yellow nutsedge (Cyperus esculentus), 14 Days After Application, read-out: Visual Growth Reduction (%) CYPES

Row | Structure (SMILES) | pest or weed control at 140 g/ha [1] | pest or weed control at 140 g/ha [2] | pest or weed control at 140 g/ha [3] | pest or weed control at 140 g/ha [4] | pest or weed control at 140 g/ha [5] | pest or weed control at 140 g/ha [6] | pest or weed control at 140 g/ha [7] | pest or weed control at 140 g/ha [8] | pest or weed control at 140 g/ha [16] | pest or weed control at 140 g/ha [17] | pest or weed control at 140 g/ha [18] | pest or weed control at 140 g/ha [19] | pest or weed control at 140 g/ha [20] | pest or weed control at 140 g/ha [21] | pest or weed control at 140 g/ha [22] | also measured
1 | COC(=O)c1nc(-c2ccc(OC(F)F)cc2OC)c(F)cc1Cl [F161, Methyl 3-chloro-6-4-(difluoromethoxy)-2-methoxyphenyl)-5-fluoropicolinate] | 85 to 94% | 95 to 100% | 85 to 94% | 0 to 29% | 85 to 94% | 95 to 100% | 30 to 44% | 60 to 74% | – | – | – | – | – | – | – | –
2 | CO/N=C/c1ccc(-c2ccc(Cl)c(C(=O)OC)n2)c(Cl)c1 [F21, methyl 3-chloro-6-(2-chloro-4-((methoxyimino)methyl)phenyl)picolinate] | – | – | – | – | – | – | – | – | – | – | – | – | – | – | – | pest or weed control at 140 g/ha [9]: 0 to 29%; pest or weed control at 140 g/ha [10]: 0 to 29%; pest or weed control at 140 g/ha [11]: 0 to 29%; pest or weed control at 140 g/ha [12]: 0 to 29%; pest or weed control at 140 g/ha [13]: 0 to 29%; pest or weed control at 140 g/ha [14]: 0 to 29%; pest or weed control at 140 g/ha [15]: 0 to 29%; pest or weed control at 140 g/ha (barnyardgrass (Echinochloa crus-galli), 14 Days After Application, read-out: Visual Growth Reduction (%) ECHCG): 0 to 29%; pest or weed control at 140 g/ha (common chickweed (Stellaria media), 14 Days After Application, read-out: Visual Growth Reduction (%) STEME): 0 to 29%; pest or weed control at 140 g/ha (giant foxtail (Setaria faberi), 14 Days After Application, read-out: Visual Growth Reduction (%) SETFA): 0 to 29%; pest or weed control at 140 g/ha (ivy-leaf morning glory (Ipomoea hederacea), 14 Days After Application, read-out: Visual Growth Reduction (%) IPOHE): 0 to 29%; pest or weed control at 140 g/ha (johnsongrass (Sorghum vulgare), 14 Days After Application, read-out: Visual Growth Reduction (%) SORVU): 0 to 29%; pest or weed control at 140 g/ha (kochia (Bassia scoparia), 14 Days After Application, read-out: Visual Growth Reduction (%) KCHSC): 0 to 29%; pest or weed control at 140 g/ha (rice (Oryza sativa), 14 Days After Application, read-out: Visual Growth Reduction (%) ORYSA): 0 to 29%; pest or weed control at 140 g/ha (wheat, spring (Triticum aestivum), 14 Days After Application, read-out: Visual Growth Reduction (%) TRZAS): 0 to 29%
3 | COC(=O)c1nc(-c2ccc([N+](=O)[O-])cc2)c(F)cc1Cl [F197, Methyl 3-chloro-5-fluoro-6-(4-nitrophenyl) picolinate] | – | – | – | – | – | – | – | – | – | – | – | – | – | – | – | Visual Growth Reduction (%) 14 Days After Application, ALOMY (ALOMY: blackgrass (Alopecurus myosuroides), 14 days after application): G (0-29); Visual Growth Reduction (%) 14 Days After Application, AMARE (AMARE: redroot pigweed (Amaranthus retroflexus), 14 days after application): G (0-29); Visual Growth Reduction (%) 14 Days After Application, AVEFA (AVEFA: wild oat (Avena fatua), 14 days after application): G (0-29); Visual Growth Reduction (%) 14 Days After Application, CHEAL (CHEAL: lambsquarters (Chenopodium album), 14 days after application): E (45-59); Visual Growth Reduction (%) 14 Days After Application, CIRAR (CIRAR: canada thistle (Cirsium arvense), 14 days after application): G (0-29); Visual Growth Reduction (%) 14 Days After Application, CYPES (CYPES: yellow nutsedge (Cyperus esculentus), 14 days after application): G (0-29); Visual Growth Reduction (%) 14 Days After Application, DIGSA (DIGSA: crabgrass (Digitaria sanguinalis), 14 days after application): F (30-44); Visual Growth Reduction (%) 14 Days After Application, ECHCG (ECHCG: barnyardgrass (Echinochloa crus-galli), 14 days after application): G (0-29); Visual Growth Reduction (%) 14 Days After Application, IPOHE (IPOHE: ivy-leaf morning glory (Ipomoea hederacea), 14 days after application): D (60-74); Visual Growth Reduction (%) 14 Days After Application, KCHSC (KCHSC: kochia (Bassia scoparia), 14 days after application): G (0-29); Visual Growth Reduction (%) 14 Days After Application, ORYSA (ORYSA: rice (Oryza sativa), 14 days after application): G (0-29); Visual Growth Reduction (%) 14 Days After Application, SETFA (SETFA: giant foxtail (Setaria faberi), 14 days after application): G (0-29); Visual Growth Reduction (%) 14 Days After Application, SORVU (SORVU: johnsongrass (Sorghum vulgare), 14 days after application): F (30-44); Visual Growth Reduction (%) 14 Days After Application, STEME (STEME: common chickweed (Stellaria media), 14 days after application): G (0-29); Visual Growth Reduction (%) 14 Days After Application, TRZAS (TRZAS: wheat, spring (Triticum aestivum), 14 days after application): G (0-29)
4 | COC(=O)c1nc(-c2cc(Br)c(C(F)(F)F)cc2Cl)c(Cl)cc1Cl [F257, Methyl 6-(5-bromo-2-chloro-4-(trifluoromethyl)phenyl)-3,5-dichloropicolinate] | 0 to 29% | 85 to 94% | 0 to 29% | 0 to 29% | 0 to 29% | 0 to 29% | 0 to 29% | 0 to 29% | 0 to 29% | 0 to 29% | 0 to 29% | 75 to 84% | 0 to 29% | 0 to 29% | 0 to 29% | –
5 | O=C(O)c1nc(-c2cc3c(cc2F)OC(F)(F)O3)c(F)cc1Cl [F334, 3-Chloro-5-fluoro-6-(2,2,6-trifluorobenzo[d][1,3]dioxol-5-yl)picolinic acid] | 75 to 84% | 95 to 100% | 60 to 74% | 45 to 59% | 75 to 84% | 95 to 100% | 0 to 29% | 75 to 84% | 75 to 84% | – | 95 to 100% | 75 to 84% | 75 to 84% | 60 to 74% | 60 to 74% | –
6 | COC(=O)c1nc(-c2ccc(O)cc2Cl)ccc1Cl [F355, methyl 3-chloro-6-(2-chloro-4-hydroxyphenyl)picolinate] | 0 to 29% | 0 to 29% | 0 to 29% | 0 to 29% | 0 to 29% | 0 to 29% | 0 to 29% | 0 to 29% | 0 to 29% | 75 to 84% | 0 to 29% | 0 to 29% | 0 to 29% | 0 to 29% | 0 to 29% | –
7 | O=C(O)c1nc(-c2ccc(C(F)(F)F)c(F)c2)ccc1Cl [F315, 3-Chloro-6-(3-fluoro-4-(trifluoromethyl)phenyl) picolinic acid] | 0 to 29% | 95 to 100% | 0 to 29% | 0 to 29% | 60 to 74% | 85 to 94% | 0 to 29% | 60 to 74% | 0 to 29% | 60 to 74% | 75 to 84% | 60 to 74% | 60 to 74% | 0 to 29% | 60 to 74% | –
8 | COC(=O)c1nc(-c2ccc(OC(F)F)cc2OC)c(F)cc1Cl [F161 (F393)] | – | – | – | – | – | – | – | – | – | – | – | – | – | – | – | pest or weed control at 140 g/ha [9]: 0 to 29%; pest or weed control at 140 g/ha [10]: 95 to 100%; pest or weed control at 140 g/ha [11]: 75 to 84%; pest or weed control at 140 g/ha [12]: 85 to 94%; pest or weed control at 140 g/ha [13]: 85 to 94%; pest or weed control at 140 g/ha [14]: 0 to 29%; pest or weed control at 140 g/ha [15]: 45 to 59%
